Experiments:
MV-4-11 xenograft tumor = experiment: Western blot of CDK9-dependent protein expression in MV-4-11 xenograft tumor tissue; type: in vivo, female BALB/c nude mice; details: single dose 15 mg/kg i.v.
Protocol: Figure 9 Effect of GFH009 treatment on CDK9-dependent protein expression in vivo. Female BALB/c nude mice were subcutaneously inoculated with 5 × 10^6 MV-4-11 cells. […] The mice were euthanized, and tumor tissues were collected at different times after administration as indicated for western blot analysis. Three individual mice were selected from GFH009 treatment group.
In vivo protein expression was assessed via SDS-PAGE and western blotting of samples from female BALB/c nude mice following treatment with GHF009. […] When tumors reached approximately 600 mm^3 (Day 25), animals were randomly divided into two groups. Group 1 received a single dose of vehicle control. […] Both were administered via tail vein injection.
All mice were euthanized, and tumor tissues collected at required times following administration. Group 1 control animals were euthanized at 2 hours post-administration. Group 2 animals were euthanized at 1, 2, 4, 8, 24, and 48 hours after administration. Tumor tissue was harvested, weighed, and flash frozen in liquid nitrogen. Total proteins were extracted and analyzed by western blot to determine expression of phospho-Rpb1 CTD Ser2, RPB1, MYC, MCL-1, Cleaved Caspase-3, and vinculin. Image Studio V5.0 was used to analyze all western blot membrane images.

MV-4-11 = experiment: Apoptosis by Annexin V/PI double staining, flow cytometry; type: cell-based, human; details: 6-hour treatment, DMSO control 6.4 ± 0.1%
Protocol: Figure 5 Apoptotic activity of GFH009 in human malignancy cell lines. Four cell lines, MV-4-11 (A), HL-60 (B), U937 (C), and NCI-H929 (D) were treated with different concentrations of GFH009 or enitociclib for 6 hours and harvested for cell apoptosis analysis using Annexin V/PI double staining. Data are presented as mean (SD) from multiple independent experiments. ^* P < 0.05, ^*** P < 0.001, ^**** P < 0.0001, one-way ANOVA with Dunnett’s test analysis compared to DMSO control group.
Initiation of apoptosis by GFH009 was assayed in multiple human cell lines, including MV-4-11, HL-60, U937, and NCI-H929. Cells were incubated at 37°C and 5% CO2 for 6 hours at final concentrations of 1 μM, 0.3 μM, 0.1 μM, 0.03 μM, and 0.01 μM for both GFH009 and Enitociclib. After drug treatment, cells were collected, and apoptosis determined using Annexin V-FITC and propidium iodide (PI) staining (Becton, Dickinson and Co, Franklin Lakes, NJ, USA). Samples were examined using an Attune NxT Flow Cytometer (Thermo Fisher Scientific, Waltham, MA, USA) within 1 hour of staining and analyzed using FlowJo vX.0.7 software. The apoptotic rate between groups was statistically compared by means of one-way ANOVA (Dunnett’s multiple comparisons test). Differences from the dimethyl sulfoxide (DMSO)-only treated control group was considered statistically significant at a P value of < 0.05. All plotting and statistical analysis were conducted using the Prism GraphPad 6 for Windows v6.01.

CDK13/cyclin K = molecular target: T1, CDK13/cyclin K (Homo sapiens, UniProt Q14004); experiment: CDK family off-target kinase activity (Eurofins); type: biochemical
T1 construct: purchased Eurofins Pharma Discovery Services UK Ltd
T1 sequence (Q14004 whole entry): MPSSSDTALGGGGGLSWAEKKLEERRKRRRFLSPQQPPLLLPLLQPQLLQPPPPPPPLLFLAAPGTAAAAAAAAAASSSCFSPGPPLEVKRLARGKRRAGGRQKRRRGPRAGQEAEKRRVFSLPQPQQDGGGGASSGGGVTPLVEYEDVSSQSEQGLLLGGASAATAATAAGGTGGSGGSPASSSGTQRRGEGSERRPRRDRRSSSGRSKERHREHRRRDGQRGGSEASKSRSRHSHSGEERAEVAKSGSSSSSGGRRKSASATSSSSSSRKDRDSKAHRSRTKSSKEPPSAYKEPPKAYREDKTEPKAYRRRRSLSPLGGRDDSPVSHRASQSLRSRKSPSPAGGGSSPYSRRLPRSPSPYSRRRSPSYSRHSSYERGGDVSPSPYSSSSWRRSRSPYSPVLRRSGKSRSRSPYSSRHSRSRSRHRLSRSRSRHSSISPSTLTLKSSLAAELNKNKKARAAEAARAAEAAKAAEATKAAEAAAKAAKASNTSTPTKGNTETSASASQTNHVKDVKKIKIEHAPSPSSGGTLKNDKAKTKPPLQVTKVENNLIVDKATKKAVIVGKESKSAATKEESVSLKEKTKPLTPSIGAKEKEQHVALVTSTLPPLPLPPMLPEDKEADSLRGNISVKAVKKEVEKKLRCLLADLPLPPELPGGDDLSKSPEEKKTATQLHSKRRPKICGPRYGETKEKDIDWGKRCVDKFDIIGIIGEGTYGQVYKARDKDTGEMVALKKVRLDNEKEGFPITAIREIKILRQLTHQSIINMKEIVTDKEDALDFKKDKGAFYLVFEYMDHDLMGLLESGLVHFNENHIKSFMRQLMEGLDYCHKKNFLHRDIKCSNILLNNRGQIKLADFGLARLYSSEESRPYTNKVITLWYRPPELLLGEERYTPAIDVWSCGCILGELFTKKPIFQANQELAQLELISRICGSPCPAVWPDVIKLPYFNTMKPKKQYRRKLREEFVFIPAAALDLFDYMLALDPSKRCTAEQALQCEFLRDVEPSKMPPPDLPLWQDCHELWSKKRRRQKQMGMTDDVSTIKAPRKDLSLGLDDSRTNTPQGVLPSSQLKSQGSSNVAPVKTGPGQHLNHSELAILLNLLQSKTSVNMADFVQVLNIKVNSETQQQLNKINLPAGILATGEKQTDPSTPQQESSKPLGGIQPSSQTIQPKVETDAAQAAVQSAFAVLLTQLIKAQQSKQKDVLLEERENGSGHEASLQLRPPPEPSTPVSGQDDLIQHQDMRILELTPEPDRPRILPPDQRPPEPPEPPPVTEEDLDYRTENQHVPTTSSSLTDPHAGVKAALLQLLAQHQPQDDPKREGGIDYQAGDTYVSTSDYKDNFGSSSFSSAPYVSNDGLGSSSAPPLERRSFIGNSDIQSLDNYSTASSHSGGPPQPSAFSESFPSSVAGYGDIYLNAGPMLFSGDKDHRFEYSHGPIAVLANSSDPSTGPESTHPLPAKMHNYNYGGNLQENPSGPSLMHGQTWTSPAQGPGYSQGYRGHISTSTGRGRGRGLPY
T1 sequence (O75909 whole entry partner): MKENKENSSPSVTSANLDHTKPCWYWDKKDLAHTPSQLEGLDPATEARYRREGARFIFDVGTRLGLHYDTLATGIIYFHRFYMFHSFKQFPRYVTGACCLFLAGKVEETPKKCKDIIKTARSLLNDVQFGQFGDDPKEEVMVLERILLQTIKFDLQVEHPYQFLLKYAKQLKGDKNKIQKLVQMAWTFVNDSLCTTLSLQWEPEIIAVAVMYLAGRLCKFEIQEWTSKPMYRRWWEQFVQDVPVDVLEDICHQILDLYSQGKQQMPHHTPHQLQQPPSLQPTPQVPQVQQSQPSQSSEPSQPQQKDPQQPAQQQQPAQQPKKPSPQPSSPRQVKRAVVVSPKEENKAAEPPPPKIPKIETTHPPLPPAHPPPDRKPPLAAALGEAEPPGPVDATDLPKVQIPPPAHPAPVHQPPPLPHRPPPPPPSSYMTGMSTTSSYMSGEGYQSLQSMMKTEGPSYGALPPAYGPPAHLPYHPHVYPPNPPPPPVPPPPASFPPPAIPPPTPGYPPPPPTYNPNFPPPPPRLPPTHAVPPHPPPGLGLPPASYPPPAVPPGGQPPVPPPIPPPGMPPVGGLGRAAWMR
Source text: The pharmacodynamic and mechanistic foundation for the
CDK9 inhibitor for the treatment of hematologic malignancies
Supplementary Table 1: Inhibitory action of GFH009 on other CDK family members
Various CDK/ Remaining enzymatic activity (%) after
cognate cyclin pairs tested exposure to GFH009 at a concentration of Selectivity vs. CDK9
(also on this page, place not known: www.oncotarget.com Oncotarget, Materials Supplementary)
(1 picture or pasted object on this page, not shown here)

`COC[C@@H](C)NC1CCC(Nc2cc(-c3csc(NCC4(C#N)CCOCC4)n3)c(Cl)cn2)CC1` (stereo partly shown) [GFH009] was tested, and the “Levels of MCL-1 and MYC in tumor” value (MV-4-11 xenograft tumor; from 2 hours through 48-hour time point) was “began to decrease significantly”, the “Expression of p-Rpb1 phospho-Ser2 in tumor” value (MV-4-11 xenograft tumor; from one hour through 48 hours post-administration) was “began to decrease significantly” and the Apoptosis rate (MV-4-11; 0.01 μM) was 6.3 ± 0.1%. The Apoptosis rate (MV-4-11; 0.03 μM) was 7.4 ± 0.3%, the Apoptosis rate (MV-4-11; 0.1 μM) was 38.1 ± 0.1% and the Apoptosis rate (MV-4-11; 0.3 μM) was 67.4 ± 1.0%. For the same compound, the Apoptosis rate (MV-4-11; 1 μM) was 61.2 ± 0.3%, the “Selectivity vs. CDK9” value (CDK13/cyclin K) was over 1000 and the “Remaining enzymatic activity (%) after exposure to GFH009” value (CDK13/cyclin K; 1 µM) was 93%. The “Remaining enzymatic activity (%) after exposure to GFH009” value (CDK13/cyclin K; 10 µM) was 88%.

— PMC10732257 (Oncotarget, 2023)
